Five compounds from ChEMBL document CHEMBL1201862, “PubChem BioAssay data set” (2004) can be followed below.

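All cell lines were grown in 96-well plates and treated with compound for 48 hours. Here, GI50 denotes the concentration required for 50% inhibition of growth.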 Calls of active or inactive are those of the source. Cut-off read from the data, not from the text of the source: active = GI50 up to about 1.1 µM and inactive = higher.

Among the test systems are HCT-116; SK-MEL-2; MDA-MB-231; CAKI-1; A549; SN12C; M14; HOP-62; NCI-H460; SR; UACC-62; MOLT-4; 786-0; DU-145; PC-3; SW-620; MDA-N; SK-OV-3.
Common to all, as to assay: growth of human tumour cells (NCI), 48 h

Consider `Cc1sc2nc(-c3cc([N+](=O)[O-])c(Cl)cc3Cl)c(/C=N/NC(=N)N)n2c1C`, for which the GI50 in the test with HCT-116 was 4.15 µM (inactive); in the test with SK-MEL-2, 1.97 µM (inactive); with MDA-MB-231, 6.61 µM (inactive); with CAKI-1 it was 11.9 µM (inactive); with A549, 22.9 µM (inactive); in the test on SN12C it was 5.65 µM (inactive). Further, the GI50 in the test on M14 was 2.76 µM (inactive); in the test on HOP-62 it was 7.66 µM (inactive); in the test with NCI-H460 it was 6.34 µM (inactive); in the test on SR it was 0.411 µM (active); in the test on UACC-62, 14.7 µM (inactive); with MOLT-4, 1.62 µM (inactive). Moreover, the GI50 with 786-0 was 5.46 µM (inactive); in the test on DU-145 it was 14.5 µM (inactive); in the test on PC-3, 5.69 µM (inactive); in the test with SW-620, 13.6 µM (inactive).

Consider `Cc1ccc(S(=O)(=O)NC(=O)Nc2ccc(S(N)(=O)=O)cc2S(N)(=O)=O)cc1`, for which the GI50 in the test on HCT-116, in the test with SK-MEL-2, in the test on MDA-N, in the test with MDA-MB-231, in the test on CAKI-1 and in the test with A549 was > 100 µM (inactive) in each case. The GI50 with SN12C, with M14, in the test with HOP-62, with SK-OV-3, in the test on UACC-62 and in the test with MOLT-4 was > 100 µM (inactive) throughout. For the same compound, the GI50 in the test on 786-0, with DU-145, in the test on PC-3 and with SW-620 was > 100 µM (inactive) each time.

`CC(=O)O[C@]12CCC[C@H]1C1(O)C(O)CCC[C@H]12` (stereo partly drawn): the GI50 in the test on HCT-116, in the test on SK-MEL-2, with A549, with SN12C, in the test on M14 and in the test with HOP-62 was > 100 µM (inactive) each time. In addition, the GI50 with NCI-H460, in the test with SK-OV-3, in the test on SR, in the test on UACC-62, in the test on MOLT-4 and with 786-0 was > 100 µM (inactive) in each case. The GI50 in the test with SW-620 is > 100 µM (inactive).

Consider `CC(C)(C)C1CC[C@H](O)[C@H]([C@H](O)CC2CC(=O)N(c3ccccc3)C(=O)C2)C1` (stereo partly drawn), for which the GI50 in the test with HCT-116, in the test with MDA-N, in the test with MDA-MB-231, in the test with CAKI-1, in the test with A549 and in the test on SN12C was > 100 µM (inactive) in each case. The GI50 is > 100 µM (inactive) with M14; 74.6 µM (inactive) with HOP-62; 95.9 µM (inactive) with NCI-H460; > 100 µM (inactive) in the test on SR; 31.5 µM (inactive) with UACC-62; 99.3 µM (inactive) in the test on MOLT-4. In addition, the GI50 in the test on 786-0, in the test on DU-145, in the test with PC-3 and in the test on SW-620 was > 100 µM (inactive) throughout.

For `CC[C@H]1C=CCC[C@@]2(C[C@@H]3CC[C@H]4[C@@H](C(=O)OCCCCCCCCCCCCCCCC(=O)N(CCCN)C[C@@H](O)CCN)[C@@]5(CCC[C@@H](C)O5)NC(=[N+]34)N2)O1`, the GI50 is 1.61 µM (inactive) in the test on HCT-116; 1.7 µM (inactive) in the test on SK-MEL-2; 1.66 µM (inactive) in the test on MDA-N; 5.64 µM (inactive) with CAKI-1; 1.77 µM (inactive) in the test with A549; 2.96 µM (inactive) in the test on SN12C. The GI50 was 1.91 µM (inactive) with M14; 1.69 µM (inactive) with HOP-62; 1.74 µM (inactive) with NCI-H460; 1.8 µM (inactive) in the test with SK-OV-3; 1.85 µM (inactive) in the test on SR; 1.78 µM (inactive) in the test with UACC-62. The GI50 in the test on MOLT-4 was 1.23 µM (inactive); in the test with 786-0 it was 1.88 µM (inactive); in the test on DU-145, 1.8 µM (inactive); in the test with PC-3, 1.62 µM (inactive); with SW-620 it was 2.12 µM (inactive).
